# Reference: patent US5807745A, “Method of inhibiting PADGEM-mediated or ELAM-1-mediated leukocyte adhesion using an inhibitor comprising a Le^x core component” (New England Medical Center Hospitals, Inc., priority 1995, dated 1998)
# B1: purified PADGEM: purified platelet activation dependent granule-external membrane protein (protein, UniProt P16109 42-830, looked up)
# P-selectin: WTYHYSTKAYSWNISRKYCQNRYTDLVAIQNKNEIDYLNKVLPYYSSYYWIGIRKNNKTWTWVGTKKALTNEAENWADNEPNNKRNNEDCVEIYIKSPSAPGKWNDEHCLKKKHALCYTASCQDMSCSKQGECLETIGNYTCSCYPGFYGPECEYVRECGELELPQHVLMNCSHPLGNFSFNSQCSFHCTDGYQVNGPSKLECLASGIWTNKPPQCLAAQCPPLKIPERGNMTCLHSAKAFQHQSSCSFSCEEGFALVGPEVVQCTASGVWTAPAPVCKAVQCQHLEAPSEGTMDCVHPLTAFAYGSSCKFECQPGYRVRGLDMLRCIDSGHWSAPLPTCEAISCEPLESPVHGSMDCSPSLRAFQYDTNCSFRCAEGFMLRGADIVRCDNLGQWTAPAPVCQALQCQDLPVPNEARVNCSHPFGAFRYQSVCSFTCNEGLLLVGASVLQCLATGNWNSVPPECQAIPCTPLLSPQNGTMTCVQPLGSSSYKSTCQFICDEGYSLSGPERLDCTRSGRWTDSPPMCEAIKCPELFAPEQGSLDCSDTRGEFNVGSTCHFSCDNGFKLEGPNNVECTTSGRWSATPPTCKGIASLPTPGVQCPALTTPGQGTMYCRHHPGTFGFNTTCYFGCNAGFTLIGDSTLSCRPSGQWTAVTPACRAVKCSELHVNKPIAMNCSNLWGNFSYGSICSFHCLEGQLLNGSAQTACQENGHWSTTVPTCQAGPLTIQEALTYFGGAVASTIGLIMGGTLLALLRKRFRQKDDGKCPLNPHSHLGTYGVFTNAAFDPSP
# What was measured:
# [1] = tested on: ELAM-mediated binding of HL60 cells to CHO-ELAM cells; assay: CHO-ELAM adhesion assay with tritiated HL60 cells; type: cell-based; settings: Homo sapiens, HL-60, done once only, read-out: decrease of ELAM-mediated binding; for inhibition at 250 µM: 0.25 mM; for inhibition at 500 µM: 0.5 mM
# Text: (§1) Chinese hamster ovary cells (CHO-DUKX) were transfected with cDNA encoding ELAM or PADGEM to make CHO-ELAM and CHO-PADGEM cells. Each of the following cell types, Chinese hamster ovary cells-DUKX (CHO-DUKX), Chinese hamster ovary cells transfected with cDNA for ELAM (CHO-ELAM) and Chinese hamster ovary cells transfected with cDNA for PADGEM (CHO-PADGEM), were separately plated at a density of 6×10^4 cells per milliliter of medium into Costar 48 well culture plates. On the following day, HL60 cells in culture were sedimented by centrifugation and resuspended in medium (RPMI, 10% fetal calf serum) to a density of 5×10^5 cells/ml. Tritiated thymidine (5 μCi per milliliter) was added to the HL60 cell suspension and the cells were grown overnight. The following day the HL60 cells were washed thrice in serum free RPMI and resuspended in a volume of 5 mls of RPMI. After assuring that the free tritium in the cell suspension is no more than 10% of the cell associated tritium, the cell count of the cell suspension was established and the cell density was adjusted to 1×10^6 cells per milliliter.
# (§2) To perform the assay medium was aspirated from the CHO cells, CHO-ELAM cells and CHO-PADGEM cells. The wells containing these cells were rinsed with 1 ml of serum free RPMI. HL60 cells were preincubated for 10 minutes with the test sugar at the concentrations indicated. Aliquots of these HL60 cells (100,000 to 300,000 cells) were then added to individual wells containing CHO cells of the various types and the two cell populations incubated together for 30 minutes at room temperature. Unbound HL60 cells were removed by aspiration and the wells were washed thrice with serum free RPMI. The adherent CHO cells and any bound HL60 cells were detached from the surface of the wells with 250 μl of phosphate buffered saline containing 1 mM EDTA. An aliquot of the detached cells (200 μl) was analyzed for tritium content in a β-scintillation counter. The level of nonspecific binding of tritiated HL60 cells was taken as the level of binding seen in the wells containing the CHO-DUKX cells (parent cell line of CHO-PADGEM and CHO-ELAM transfectants). This value was subtracted from the level of tritiated HL60 cells bound in wells containing CHO-ELAM or CHO-PADGEM cells. The decrease in binding induced by the presence of the sugar was determined by comparing the level of binding of HL60 cells in the presence of the sugar to that observed in its absence.
# (§3) Additional sugars were tested for inhibition of PADGEM- and ELAM-mediated interactions using the CHO-PADGEM and CHO-ELAM adhesion assay described in Example 2. The following sugars were tested at a single concentration: […]
# [2] = tested on: PADGEM-mediated binding of HL60 cells to CHO-PADGEM transfectants; assay: CHO-PADGEM adhesion assay with tritiated HL60 cells; type: cell-based; settings: done once only
# Text: as §1, §2, §3
# [3] = tested on: adherence of activated platelets to neutrophils (PADGEM-mediated); assay: Phase-contrast cell adhesion assay: thrombin-activated platelets with neutrophils; type: cell-based, human; settings: LNF isomers; direct cell adhesion assay; FIG. 6
# Protocol: Platelets were isolated by gel filtration from fresh anticoagulated blood obtained from normal human donors (Hsu-Lin et al., J. Biol. Chem., 259: 9121-9126 (1984)). Activated platelets were prepared by incubating cells without stirring for 20 minutes at 22° C. with thrombin at a final concentration of 0.25 U/ml. Fresh platelets were used in cell adhesion assays within 30 minutes of preparation.
# Neutrophils were prepared by the method of English and Anderson (J. Immunol. Method, 5: 249-252 (1974)). The neutrophil preparations were greater than 95% pure by light microscopy. Monocytes were prepared by washing the mono-nuclear leukocyte fraction twice with human serum-5 mM EDTA and incubating the cells in RPMI 1640--10% fetal calf serum in sterile […] dishes for 2 hours at 37° C. The dishes were washed three times with PBS at 37° C. to remove nonadherent cells. PBS at 0° C. was added, and the cells were incubated at 4° C. for 1 hour. Adherent cells were gently detached with a rubber policeman, washed in PBS, and resuspended in RPMI 1640--1% fetal calf serum. Lymphocytes were obtained by washing the nonadherent cells with PBS and resuspending these cells in RPMI 1640--1% fetal calf serum. The purity of these preparations was established to be greater than 90% by light microscopy using Wright esterase and nonspecific esterase stains.
# Twenty microliters of platelet suspension (2×10^8 /ml) was mixed with 20 μl of cell suspension (2×10^6 /ml) and incubated for 20 minutes at 22° C. in a microfuge tube. An aliquot of the cell suspension was then in a Neubauer chamber and evaluated by light microscropy using an Olympus model BH-2 microscope. Three samples from each assay were evaluated by counting 200 cells and scoring the percentage of cells with two or more adherent platelets (Jungi et al., Blood 67: 629-636 (1986)). Antibody inhibition studies were performed by preincubating cells (20 μl; 3×10^6 /ml) with 20 μl of antibody solution for 20 minutes at 22° C. Subsequently, 20 μl of platelet suspension was added, and the mixture was incubated for 20 minutes at 22° C. Samples were analyzed as above.
# To identify the PADGEM recognition site on leukocytes that mediates the binding of activated platelets, monoclonal antibodies directed at various antigens on the surface of monocytes and neutrophils were tested for their ability to inhibit the interaction of these cells with activated platelets, using the phase-contrast cell adhesion assay described in Example 2 (FIG. 1 and FIG. 2). The antibodies were raised against various leukocytes and myeloid cell lines and are directed at leukocyte antigens. […] The percentage of cells displaying two or more adherent platelets was determined as described in Example 2.
# [4] = tested on: binding of HL60 cells to COS/PADGEM cells; assay: COS cell-PADGEM adhesion assay with labelled HL60 cells; type: cell-based, human; settings: for inhibition of binding of radiolabeled HL60 cells to COS/PADGEM cells: 111In activity, FIG. 7; for inhibition of binding of fluorescently labeled HL60 cells to COS/PADGEM cells: scored morphologically in a blind assay
# Protocol: COS cells (1×10^5) were transfected with 40 μg of the resulting PADGEM expression vector by calcium phosphate precipitation. Coverslips (12×12 mm) were added to each culture. After 48 hours of growth in DMEM--10% fetal calf serum, the COS cells were confluent.
# HL60 cells (1×10^7), maintained in culture, were washed and resuspended in 0.5 ml of serum-free RPMI 1640. The cells were labeled with 270 μCi of ^111 In oxine (Callow et al., Arch. Surg., 117: 1447-1455 (1982)) and 10 μg of bis-carboxyethyl-carboxyfluorescein (Kolber et al., J. Immunol. Meth., 108: 255-264 (1988)) by incubation at 37° C. for 30 minutes. After washing with RPMI 1640--1% bovine serum albumin, the cells (1×10^6) were incubated with the coverslips containing confluent COS cell transfectants, in the presence or absence of LNF isomers, for 20 minutes at 37° C. The coverslips were washed with RPMI 1640, and duplicate coverslips were assayed for ^111 In activity. Alternatively, samples were evaluated for HL60 cell adherence by fluorescence and phase-contrast microscopy using a Zeiss Axioscope microscope in a blind assay. Inhibition of the binding of COS/PADGEM cells to U937 cells by the antibody 80H5 was performed in experiments identical to the procedure described above.
# The results of a COS cell-PADGEM adhesion assay, in which the binding of ^111 In and bis-carboxyethyl-carboxyfluorescein-lableled HL60 cells to COS/PADGEM cells was monitored by assaying ^111 In activity (Example 2), are shown in FIG. 7. […] The inhibitory effect of LNF II was more apparent when the LNF to PADGEM ratio was high. […] It is possible that minor contamination of the LNF II preparation with LNF III can account for the inhibitory activity observed.
# The inhibitory effects of LNF I, II, and III on the interaction of HL60 cells and COS/PADGEM was also studied morphologically in a blind assay. In these experiments, the binding of fluorescently labeled HL60 cells to COS/PADGEM cells was scored (Example 2).
# [5] = tested on: PADGEM; settings: literature reports; cited from earlier work
molecule,measurement,setting,value
"CC(=O)NC1C(O)CC(OC2C(O)C(CO)OC(OC3C(CO)OC(O)C(O)C3OC3OC(C)C(O)C(O)C3O)C2O)(C(=O)O)OC1C(O)C(O)CO (centres unmarked) [3'-sialyl-3-fucosyllactose, NeuAcα2-3Galβ1-4[Fucα1-3]Glc]",inhibition at 250 µM,[1],50 to 60%
same,inhibition of PADGEM-mediated binding of HL60 cells to CHO-PADGEM transfectants,[2]; 0.25 mM,none of the four sugars tested appreciably inhibited
"CC(=O)NC1C(O)CC(OC2C(O)C(CO)OC(OC3C(CO)OC(O)C(O)C3O)C2O)(C(=O)O)OC1C(O)C(O)CO (centres unmarked) [3'-sialyllactose, NeuAcα2-3Galβ1-4Glc]",inhibition at 500 µM,[1],≤ 10%
same,inhibition of PADGEM-mediated binding of HL60 cells to CHO-PADGEM transfectants,[2]; 0.5 mM,none of the four sugars tested appreciably inhibited
"C[C@@H]1O[C@@H](O[C@H]2[C@H](O[C@@H]3O[C@H](CO)[C@H](O)[C@H](O)[C@H]3O)[C@@H](CO)OC(O)[C@@H]2O)[C@@H](O)[C@H](O)[C@@H]1O (some centres unmarked) [3-fucosyllactose, Galβ1-4[Fucα1-3]Glc]",inhibition at 250 µM,[1],≤ 10%
same,inhibition of PADGEM-mediated binding of HL60 cells to CHO-PADGEM transfectants,[2]; 0.25 mM,none of the four sugars tested appreciably inhibited
"CC(=O)NC1C(O)CC(OCC2OC(OC3C(CO)OC(O)C(O)C3O)C(O)C(O)C2O)(C(=O)O)OC1C(O)C(O)CO (centres unmarked) [6'-sialyllactose, NeuAcα2-6Galβ1-4Glc]",inhibition at 500 µM,[1],≤ 10%
same,inhibition of PADGEM-mediated binding of HL60 cells to CHO-PADGEM transfectants,[2]; 0.5 mM,none of the four sugars tested appreciably inhibited
"CC(=O)N[C@H]1[C@H](O[C@H]2[C@@H](O)[C@@H](CO)O[C@@H](O[C@H]3[C@H](O)[C@@H](O)C(O)O[C@@H]3CO)[C@@H]2O)O[C@H](CO)[C@@H](O)[C@@H]1O[C@@H]1O[C@H](CO)[C@H](O)[C@H](O)[C@H]1O[C@@H]1O[C@@H](C)[C@@H](O)[C@@H](O)[C@@H]1O (some centres unmarked) [LNF I, Fucα1-2Galβ1-3GlcNAcβ1-3Galβ1-4Glc]",inhibitory activity on adherence of activated platelets to neutrophils,[3],neither LNF I (open squares) nor LNF II (closed circles) had inhibitory activity
same,inhibition of binding of radiolabeled HL60 cells to COS/PADGEM cells,[4],did not inhibit
same,inhibition of binding of fluorescently labeled HL60 cells to COS/PADGEM cells,[4],no inhibitory activity
"CC(=O)N[C@H]1[C@H](O[C@H]2[C@@H](O)[C@@H](CO)O[C@@H](O[C@H]3[C@H](O)[C@@H](O)C(O)O[C@@H]3CO)[C@@H]2O)O[C@H](CO)[C@@H](O[C@@H]2O[C@@H](C)[C@@H](O)[C@@H](O)[C@@H]2O)[C@@H]1O[C@@H]1O[C@H](CO)[C@H](O)[C@H](O)[C@H]1O (some centres unmarked) [LNF II, Galβ1-3(Fucα1-4)GlcNAcβ1-3Galβ1-4Glc]",inhibitory activity on adherence of activated platelets to neutrophils,[3],neither LNF I (open squares) nor LNF II (closed circles) had inhibitory activity
same,inhibition of binding of radiolabeled HL60 cells to COS/PADGEM cells,[4],only a small inhibitory effect
same,inhibition of binding of fluorescently labeled HL60 cells to COS/PADGEM cells,[4],no inhibitory activity
fucoidin,inhibition of PADGEM-mediated binding of activated platelets to leukocytes,[5],inhibited
heparin,inhibition of PADGEM-mediated binding of activated platelets to leukocytes,[5],inhibited
B1,inhibition of PADGEM-mediated binding of activated platelets to leukocytes,[5],inhibited
